One test deals with T1, TNKS1 (Homo sapiens, UniProt O95271).
T1 sequence (O95271 1-1327): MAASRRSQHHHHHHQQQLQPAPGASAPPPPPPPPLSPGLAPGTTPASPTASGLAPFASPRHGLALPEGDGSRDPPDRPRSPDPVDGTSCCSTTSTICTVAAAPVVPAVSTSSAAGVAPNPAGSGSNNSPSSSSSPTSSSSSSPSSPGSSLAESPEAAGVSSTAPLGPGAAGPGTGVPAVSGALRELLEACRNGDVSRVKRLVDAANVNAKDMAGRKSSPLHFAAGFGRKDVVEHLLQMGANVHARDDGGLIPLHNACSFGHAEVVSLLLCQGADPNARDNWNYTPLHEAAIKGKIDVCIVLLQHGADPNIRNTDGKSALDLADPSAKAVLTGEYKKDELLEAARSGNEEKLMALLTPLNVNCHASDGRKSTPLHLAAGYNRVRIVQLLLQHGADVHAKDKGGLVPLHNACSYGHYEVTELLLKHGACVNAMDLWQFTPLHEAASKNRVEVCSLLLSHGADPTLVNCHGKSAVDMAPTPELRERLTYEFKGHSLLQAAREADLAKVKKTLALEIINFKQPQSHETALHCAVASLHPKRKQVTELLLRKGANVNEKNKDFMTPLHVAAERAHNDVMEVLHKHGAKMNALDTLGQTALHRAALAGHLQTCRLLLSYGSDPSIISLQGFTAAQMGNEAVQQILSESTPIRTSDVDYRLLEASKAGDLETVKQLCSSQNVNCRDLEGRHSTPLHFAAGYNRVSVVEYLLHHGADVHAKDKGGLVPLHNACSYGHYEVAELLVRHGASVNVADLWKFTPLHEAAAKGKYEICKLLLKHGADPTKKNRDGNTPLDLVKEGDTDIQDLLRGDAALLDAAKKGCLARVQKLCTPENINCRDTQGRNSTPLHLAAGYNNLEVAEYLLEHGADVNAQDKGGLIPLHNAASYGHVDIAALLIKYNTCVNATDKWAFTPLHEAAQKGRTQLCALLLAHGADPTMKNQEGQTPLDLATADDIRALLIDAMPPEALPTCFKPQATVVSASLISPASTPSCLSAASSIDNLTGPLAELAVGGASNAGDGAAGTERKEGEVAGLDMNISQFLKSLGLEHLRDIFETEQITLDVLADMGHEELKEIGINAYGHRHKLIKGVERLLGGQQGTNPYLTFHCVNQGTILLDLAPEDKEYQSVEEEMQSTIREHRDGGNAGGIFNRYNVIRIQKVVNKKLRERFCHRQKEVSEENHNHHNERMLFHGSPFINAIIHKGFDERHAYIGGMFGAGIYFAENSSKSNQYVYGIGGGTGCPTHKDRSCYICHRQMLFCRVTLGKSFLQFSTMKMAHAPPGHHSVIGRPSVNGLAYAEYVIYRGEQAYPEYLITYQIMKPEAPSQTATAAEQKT
Description: Modified TNKS1 Assay 3 (BPS kit #80573, biotin-NAD+, 96 well). In kind it is biochemical. Particulars: human TNKS1, BPS kit #80573, 96 well. A digest of the protocol:
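Chemiluminescent assay of TNKS1-catalysed ribosylation of a protein substrate with biotin-labelled NAD+, detected via streptavidin-HRP; run per kit protocol. Inhibition lowers the signal, and IC50 is the compound concentration halving the normalised readout.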

Test [1] concerns wildtype Wnt signaling cascade. Nature of the test: HEK293 TOP Assay (Super TopFlash luciferase reporter, Wnt-3a stimulated). In kind it is cell-based. Particulars: HEK293 TOP reporter cell line, Wnt-3a at EC50, 16 hours incubation, compound dilution series 50 μM to 15 nM. The gist of the method:
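HEK293 cells stably carrying Super TopFlash (TOP) or FOP reporter, stimulated with recombinant human Wnt-3a (2500–5 ng/ml, two-fold steps). Both lines incubated in parallel with compound from 50 μM to 15 nM (3.16-fold) in CAFTY buffer pH 7.4 with 2 mM Ca2+ and 0.01% BSA; selectivity judged TOP vs FOP.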

Test [2] concerns HEK293 FOP control reporter cell line. Description: HEK293 FOP Assay (FOP control vector luciferase reporter). In kind it is cell-based. Particulars: Homo sapiens; HEK293 FOP control reporter cell line, 16 hours incubation, compound dilution series 50 μM to 15 nM. A digest of the protocol:
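Stable HEK293 line carrying the FOP vector (randomized, non-functional TCF sites; Geneticin-selected) was run in parallel with the TOP line. Cells were plated 24 h ahead at 10000/well and given recombinant human Wnt-3a at 2500–5 ng/ml. Compounds were tested at 50 μM–15 nM (3.16-fold steps) in CAFTY buffer, pH 7.4, with 2 mM Ca2+ and 0.01% BSA.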

Take `O=C(Nc1ccc(NC(=O)c2nc[nH]c2C(=O)NCC2CCCO2)cc1)c1ccc(F)cc1Cl` (stereo not drawn) [Example 237, N^4-{4-[(2-chloro-4-fluorobenzoyl)amino]phenyl}-N^5-(tetrahydrofuran-2-ylmethyl)-1H-imidazole-4,5-dicarboxamide]: the IC50 was over 500 nM on TNKS1 and 430 nM in test [1] (Homo sapiens, HEK293, 16 h).

On to `CC(C)(N)CCNC(=O)c1[nH]cnc1C(=O)Nc1ccc(NC(=O)c2ccc(F)cc2Cl)cc1` [Example 286, N^5-(3-amino-3-methylbutyl)-N^4-{4-[(2-chloro-4-fluorobenzoyl)amino]phenyl}-1H-imidazole-4,5-dicarboxamide], for which the IC50 against TNKS1 turned out to be 70 nM; in test [1] (Homo sapiens, HEK293, 16 h), 460 nM.

As to `CNC(=O)c1nc[nH]c1C(=O)Nc1ccc(NC(=O)c2ccc(C#N)cc2F)cc1` [Example 369, N^5-{4-[(4-cyano-2-fluorobenzoyl)amino]phenyl}-N^4-methyl-1H-imidazole-4,5-dicarboxamide], the IC50 is 260 nM on TNKS1 and 750 nM in test [1] (Homo sapiens, HEK293, 16 h).

In the case of `CNC(=O)c1[nH]c(C(C)C)nc1C(=O)Nc1ccc(NC(=O)c2ccc(F)cc2Cl)cc1` [Example 106, N^4-{4-[(2-chloro-4-fluorobenzoyl)amino]phenyl}-2-isopropyl-N^5-methyl-1H-imidazole-4,5-dicarboxamide], the IC50 came out at 27000 nM in test [1] (Homo sapiens, HEK293, 16 h) and 13000 nM in test [2].

In the case of `COC(=O)c1nc[nH]c1C(=O)Nc1ccc(NC(=O)c2ccccc2Cl)c(C)c1` [Example 86, methyl-5-({4-[(2-chlorobenzoyl)amino]-3-methylphenyl}carbamoyl)-1H-imidazole-4-carboxylate], the IC50 in test [1] (Homo sapiens, HEK293, 16 h) stood at 420 nM; in test [2], 23000 nM.

Consider `CN(C)CCNC(=O)c1nc[nH]c1C(=O)Nc1ccc(NC(=O)c2ccccc2Cl)nc1` [Example 113, N^5-{6-[(2-chlorobenzoyl)amino]pyridin-3-yl}-N^4-[2-(dimethylamino)ethyl]-1H-imidazole-4,5-dicarboxamide], for which the half-maximal inhibitory concentration (IC50) in test [1] (Homo sapiens, HEK293, 16 h) worked out at 460 nM.

As to `O=C(Nc1ccc(NC(=O)c2nc[nH]c2C(=O)N2CC3(COC3)C2)cc1)c1ccc(F)cc1Cl` [Example 145, N-{4-[(2-chloro-4-fluorobenzoyl)amino]phenyl}-5-(2-oxa-6-azaspiro[3.3]hept-6-ylcarbonyl)-1H-imidazole-4-carboxamide], the 50% inhibitory concentration (IC50) at TNKS1 is over 500 nM; in test [1] (Homo sapiens, HEK293, 16 h) it was 290 nM.

Turning to `CCc1nc(C(=O)Nc2ccc(NC(=O)c3ccc(F)cc3Cl)cc2)c(C(=O)NCCN2CCCCC2)[nH]1` [Example 70, N^4-{4-[(2-chloro-4-fluorobenzoyl)amino]phenyl}-2-ethyl-N^5-[2-(piperidin-1-yl)ethyl]-1H-imidazole-4,5-dicarboxamide], the IC50 against TNKS1 amounted to 20 nM; in test [1] (Homo sapiens, HEK293, 16 h), 130 nM.

Take `O=C(Nc1ccc(NC(=O)c2nc[nH]c2C(=O)NCC2CCOC2)cc1)c1ccc(F)cc1Cl` (stereo not drawn) [Example 235, N^4-{4-[(2-chloro-4-fluorobenzoyl)amino]phenyl}-N^5-(tetrahydrofuran-3-ylmethyl)-1H-imidazole-4,5-dicarboxamide]: the IC50 against TNKS1 came to 270 nM; in test [1] (Homo sapiens, HEK293, 16 h) it was 240 nM.

In turn, `CNC(=O)c1nc[nH]c1C(=O)Nc1ccc(NC(=O)c2ccc(F)cc2Cl)c(OC)c1` [Example 95, N^5-{4-[(2-chloro-4-fluorobenzoyl)amino]-3-methoxyphenyl}-N^4-methyl-1H-imidazole-4,5-dicarboxamide] yielded an IC50 in test [1] (Homo sapiens, HEK293, 16 h) of 270 nM. This lies in the sub-micromolar range.

Take `O=C(Nc1ccc(NC(=O)c2nc[nH]c2C(=O)NCCN2CCC[C@H](O)C2)cc1)c1ccc(F)cc1Cl` [Example 271, N^4-{4-[(2-chloro-4-fluorobenzoyl)amino]phenyl}-N^5-{2-[(3S)-3-hydroxypiperidin-1-yl]ethyl}-1H-imidazole-4,5-dicarboxamide]: the IC50 against TNKS1 was 6 nM; in test [1] (Homo sapiens, HEK293, 16 h), 30 nM.

For the compound `O=C(Nc1ccc(NC(=O)c2nc[nH]c2C(=O)NCC(F)F)cc1)c1ccc(F)cc1Cl` [Example 139, N^4-{4-[(2-chloro-4-fluorobenzoyl)amino]phenyl}-N^5-(2,2-difluoroethyl)-1H-imidazole-4,5-dicarboxamide], the IC50 at TNKS1 is 290 nM; in test [1] (Homo sapiens, HEK293, 16 h), 360 nM.

Consider `CC(CN1CCOCC1)NC(=O)c1[nH]cnc1C(=O)Nc1ccc(NC(=O)c2ccc(F)cc2)cc1` (single isomer, unassigned; enantiomer 2) [Example 296, N^4-{4-[(4-fluorobenzoyl)amino]phenyl}-N^5-[1-(morpholin-4-yl)propan-2-yl]-1H-imidazole-4,5-dicarboxamide (enantiomer 2)], for which the IC50 against TNKS1 is over 500 nM; in test [1], 6450 nM.

As to `CC(C)c1nc(C(=O)Nc2ccc(NC(=O)c3ccc(F)cc3Cl)cc2)c(C(=O)NCCN2CCCCC2)[nH]1` [Example 108, N^4-{4-[(2-chloro-4-fluorobenzoyl)amino]phenyl}-2-isopropyl-N^5-[2-(piperidin-1-yl)ethyl]-1H-imidazole-4,5-dicarboxamide], the IC50 against TNKS1 turned out to be 460 nM; in test [1] (Homo sapiens, HEK293, 16 h), 5000 nM.

Turning to `COC(=O)c1nc[nH]c1C(=O)Nc1ccc(NC(=O)c2ccc(F)cc2Cl)c(OC)c1` [Example 94, methyl 5-({4-[(2-chloro-4-fluorobenzoyl)amino]-3-methoxyphenyl}carbamoyl)-1H-imidazole-4-carboxylate], the IC50 in test [1] (Homo sapiens, HEK293, 16 h) amounted to 830 nM.

As for `COc1cc(NC(=O)c2[nH]cnc2C(=O)NCCN(C)C)ccc1NC(=O)c1ccccc1Cl` [Example 100, N^5-{4-[(2-chlorobenzoyl)amino]-3-methoxyphenyl}-N^4-[2-(dimethylamino)ethyl]-1H-imidazole-4,5-dicarboxamide], the IC50 in test [1] (Homo sapiens, HEK293, 16 h) worked out at 790 nM.

For `COC(=O)c1nc[nH]c1C(=O)Nc1ccc(NC(=O)c2ccc(F)cc2)c(OC)c1` [Example 102, methyl 5-({4-[(4-fluorobenzoyl)amino]-3-methoxyphenyl}carbamoyl)-1H-imidazole-4-carboxylate], the IC50 in test [1] (Homo sapiens, HEK293, 16 h) came to 50000 nM.

As to `COc1cc(NC(=O)c2[nH]cnc2C(=O)NCCN(C)C)ccc1NC(=O)c1ccc(F)cc1Cl` [Example 96, N^5-{4-[(2-chloro-4-fluorobenzoyl)amino]-3-methoxyphenyl}-N^4-[2-(dimethylamino)ethyl]-1H-imidazole-4,5-dicarboxamide], the IC50 in test [1] (Homo sapiens, HEK293, 16 h) is 310 nM.

`Cc1cc(NC(=O)c2[nH]cnc2C(=O)NCCN2CCCCC2)ccc1NC(=O)c1ccccc1Cl` [Example 89, N^5-{4-[(2-chlorobenzoyl)amino]-3-methylphenyl}-N^4-[2-(piperidin-1-yl)ethyl]-1H-imidazole-4,5-dicarboxamide] came in with an IC50 in test [1] (Homo sapiens, HEK293, 16 h) of 600 nM. This IC50 is about 1.9-fold higher than that of the compound before.

For the compound `COC(=O)c1nc[nH]c1C(=O)Nc1ccc(NC(=O)c2ccccc2Cl)c(OC)c1` [Example 98, methyl 5-({4-[(2-chlorobenzoyl)amino]-3-methoxyphenyl}carbamoyl)-1H-imidazole-4-carboxylate], in test [1] (Homo sapiens, HEK293, 16 h), the IC50 stood at 1150 nM.

In the case of `CNC(=O)c1nc[nH]c1C(=O)Nc1ccc(NC(=O)c2ccccc2Cl)nc1` [Example 112, N^5-{6-[(2-chlorobenzoyl)amino]pyridin-3-yl}-N^4-methyl-1H-imidazole-4,5-dicarboxamide], 2550 nM corresponded to half-maximal inhibition in test [1] (Homo sapiens, HEK293, 16 h) (IC50). This IC50 lies about 2.2-fold higher than the previous one.

These data come from US9884063B2, “Amido-substituted azole compounds” (Bayer Pharma Aktiengesellschaft, priority 2014, dated 2018).
